Reference: the NIST ThermoML archive (doi:10.1021/acs.jced.7b00494)

Test: mn = molality of the nth substance listed, in mol/kg
Settings: 99.6 kPa, Liquid; for kinematic viscosity: Capillary tube (Ostwald / Ubbelohde) method; for mass density: Vibrating tube method

CNC(C)=O [N-methylacetamide] + [Ca+2].[Cl-].[Cl-]
Settings	kinematic viscosity, 308.15 K [m2/s]	kinematic viscosity, 313.15 K [m2/s]	kinematic viscosity, 318.15 K [m2/s]	mass density, 308.15 K [kg/m3]	mass density, 313.15 K [kg/m3]
m2 = 0	3.79e-06	3.35e-06	2.99e-06	945.85	941.63
m2 = 0.00398	3.81e-06	3.38e-06	3.02e-06	946.1	941.91
m2 = 0.01042	3.83e-06	3.41e-06	3.04e-06	946.61	942.38
m2 = 0.04232	4.04e-06	3.59e-06	3.19e-06	948.77	944.56
m2 = 0.05605	4.13e-06	3.67e-06	3.25e-06	949.67	945.49
m2 = 0.08536	4.34e-06	3.83e-06	3.4e-06	951.77	947.59
m2 = 0.1022	4.47e-06	3.95e-06	3.49e-06	953.01	948.87
m2 = 0.1314	4.7e-06	4.15e-06	3.67e-06	954.97	950.79
m2 = 0.1539	4.89e-06	4.31e-06	3.8e-06	956.57	952.41
m2 = 0.1613	4.95e-06	4.35e-06	3.85e-06	957.09	952.96
m2 = 0.1719	5.03e-06	4.42e-06	3.9e-06	957.84	953.69
m2 = 0.1998	5.26e-06	4.63e-06	4.08e-06	959.8	955.68
m2 = 0.2219	5.46e-06	4.8e-06	4.24e-06	961.27	957.26
m2 = 0.2578	5.79e-06	5.1e-06	4.5e-06	964	959.75
m2 = 0.3546	6.92e-06	6.01e-06	5.32e-06	970.82	966.61
